Test results published in US11492359B2, “Near-infrared nerve-sparing fluorophores” (OREGON HEALTH & SCIENCE UNIVERSITY, priority 2018, dated 2022).

What was measured:
[1] = system: murine brachial plexus and sciatic nerves; test: Nerve-specificity screening using systemic administration; type: in vivo; conditions: for nerve specificity / nerve contrast (N/M vs control group) following systemic administration: IV, 200 nmol, 4 hours prior to imaging
[2] = UV-Vis absorption and fluorescence spectroscopy of the Oxazine library; type: physicochemical; conditions: for Extinction coefficient: Beer's Law plots; for Quantum yield: relative, references Oxazine 1, Oxazine 170, Rhodamine 101
Procedure, shortened: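 Absorbance measured at room temperature in 1-cm quartz cuvette, reference corrected; extinction coefficient from Beer's Law plots of absorbance vs concentration. Fluorescence spectra corrected for PMT response; relative quantum yields averaged over multiple measurements against Oxazine 1, Oxazine 170 and Rhodamine 101 references.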

swine peripheral nerves = test: Swine nerve imaging on da Vinci Si surgical system; type: in vivo; conditions: swine
Description: A custom-built laparoscopic imaging system also capable of real-time color and fluorescence imaging was used to acquire in vivo swine images and videos. The imaging system was integrated into the da Vinci Si surgical system (Intuitive Surgical, Sunnyvale, Calif.) and consisted of a Necsel Neon 5 W 640 nm laser (Necsel, Milpitas, Calif.) coupled to the da Vinci Si endoscope with a 642 nm StopLine single-notch blocking filter (Semrock, Rochester, N.Y.). The single-notch blocking filter was placed in the Si camera sterile adaptor between the rod lens endoscope and the Si camera head. Fluorescent signal acquisition occurred in the Si white light mode with the blocking filter removing the excitation light and the fluorescent signal detected primarily on the red, green, blue (RGB) red-Bayer elements of a modified Si endoscope camera head. Laser power at the endoscope tip measured 800 mW with the optical power loses occurring primarily at the laser fiber/light guide and the Si camera head/rod lens interfaces. Fluorescence and color videos were captured using the Si Vision side cart at an exposure time of 2 ms. Videos were recorded on a Panasonic HD-SDI recorder connected to the TilePro video out connections on the da Vinci Si Vision side cart. Video clips were edited in iMovie to crop their length and include text overlays. Screen captures of the in vivo video clips were collected and are presented as figures. Da Vinci Si imaging display algorithms apply non-linear gamma and color corrections to the collected video, and thus, while image quantification is possible to report what would be visible to surgeons intraoperatively, these values are only semi-quantitative and could vary from what is observed in a more controlled system.
Swine nerve imaging studies of Oxazine derivatives. LGW01-08 and LGW05-75 were administered via IV injection at a body surface area scaled dose from mice for swine nerve imaging studies (0.34 mg/kg) (Nair & Jacob, J Basic Clin Pharm 7, 27-31 (2016) and Sharma & McNeill, Br J Pharmacol 157, 907-921 (2009)). Nerves running along the body wall in the peritoneal cavity buried beneath 1-3 mm of fascia and adipose tissue were imaged using the previously described fluorescence enabled laparoscopic imaging system docked to the da Vinci Si Surgical System. Nerve contrast was monitored immediately following injection and up to 6 hours after systemic administration. Dissection and resection of the identified nerve structures was performed using the da Vinci system, where the resected tissues were fixed in formalin. The fixed tissues were sent to the OHSU Histopathology Shared Resource for paraffin embedding, sectioning and subsequent gold standard H&E staining.
Image analysis of intraoperative nerve contrast. Custom written MatLab code was used to analyze the tissue specific fluorescence where regions of interest (ROIs) were selected on the nerve, muscle and adipose tissue using the white light images, but blinded to the fluorescence images. These ROIs were then analyzed on the co-registered, matched fluorescence images permitting assessment of the mean tissue intensities as well as the nerve to muscle (N/M) and nerve to adipose (N/A) ratios. Fluorescence intensity measurements were divided by the exposure time to obtain normalized intensity per second measurements. Mean nerve to background tissue ratios (N/M and N/A) were calculated for each Oxazine derivative. For nerve imaging at depth image analysis, fluorescent line profiles and 3-D intensity topographical plots were generated in ImageJ using the plot profile and surface plot functions, respectively. The line profiles were background and exposure time corrected by dividing by the exposure time of each image and subtracting the average intensity of background pixels from the entire line profile. […] In addition, non-uniform tissue surfaces, variable endoscope-tissue positioning, and vignetting add further complications to resolving tissue-level SBRs.

[3] = system: murine brachial plexus and sciatic nerves; test: Nerve-specificity screening using direct/topical administration; type: in vivo, mouse; conditions: for nerve specificity (N/M contrast vs control group) via direct administration: 125 μM, imaged 30 minutes after staining
Method: All reagents were purchased from Sigma Aldrich, Fisher Scientific, TCI, or Ark Pharm. Unless otherwise indicated, all commercially available starting materials were used directly without further purification. Analytical thin layer chromatography (TLC) was performed on Millipore ready-to-use plates with silica gel 60 (F254, 32-63 μm). Flash chromatography was performed on Sorbent Technologies silica gel for column chromatography or on a Biotage Isolera Flash System using SNAP Ultra cartridges. High-resolution mass spectra (HRMS) were measured on a ThermoElectron LTQ-Orbitrap high resolution mass spectrometer with a dedicated Accela HPLC system, or an Agilent 6244 time-of-flight LCMS with diode array detector VL+. LCMS and Purity Characterization Mass-to-charge ratio and purity of the Oxazine compounds were characterized on an Agilent 6244 time-of-flight tandem liquid chromatography mass spectroscopy (LCMS) with diode array detector VL+. Sample (10 μL) was injected into a C18 column (Poroshell 120, 4.6×50 mm, 2.7 micron), and eluted with a solvent system of A (H2O, 0.1% FA) and B (MeCN, 01.% FA) at 0.4 mL/min, from A/B=90/10 to 5/95 over 10 min, maintained at A/B=5/95 for additional 5 min. Ions were detected in positive ion mode by setting the capillary voltage at 4 kV and gas temperature at 350° C. Purity was calculated through area under the curve analysis of the absorbance at 254 nm. UV-Vis Absorption and Fluorescence Spectroscopy. UV-Vis spectra were collected with a Cary 50 UV-Vis spectrophotometer at room temperature, using a 1-cm quartz cuvette. Fluorescence spectra were collected on a Cary Eclipse fluorescence spectrophotometer (Agilent Technologies). All absorbance spectra were reference corrected. Extinction coefficient was calculated from Beer's Law plots of absorbance versus concentration. Fluorescence spectra were corrected for the wavelength dependent response of the R928 photomultiplier tube using a manufacturer generated correction file. Relative quantum yields are reported as the average of multiple measurements using multiple references, including Oxazine 1, Oxazine 170, and Rhodamine 101. Physicochemical Property Calculation. Physicochemical partition coefficients (Log D) values at pH 7.4, number of hydrogen bond donors and acceptors, polar surface area, and the number of rotatable bonds were calculated using Marvin and JChem calculator plugins (ChemAxon, Budapest, Hungary). Nerve-Specificity Screening using Direct/Topical Administration Each compound was screened for its tissue-specificity using a previously published direct/topical administration strategy in murine brachial plexus and sciatic nerves.^1 Each compound from the Oxazine library was formulated in the previously utilized co-solvent formulation (10% DMSO, 5% Kolliphor, 65% serum and 20% phosphate buffered saline) at 125 μM. 100 μL of the formulated Oxazine were incubated on the exposed brachial plexus or sciatic nerve for 5 minutes. The fluorophore containing solution was removed and the area was irrigated with saline 18 times to remove any unbound fluorophore. Co-registered fluorescence and color images were collected of each stained area 30 minutes after Oxazine direct/topical administration using a custom built macroscopic imaging system with 620/60 nm excitation and 700/75 nm bandpass emission filters. Custom written MatLab code was used to analyze the tissue specific fluorescence where regions of interest were selected on the nerve, muscle and adipose tissue using the white light images. These regions of interest were then analyzed on the co-registered matched fluorescence images permitting assessment of the nerve to muscle and nerve to adipose ratios in blinded manner. […]

CC/N=c1/cc2oc3cc4c(cc3nc-2cc1C)OCCN4CC [LGW05-75, (Z)—N-(4-ethyl-9-methyl-3,4-dihydro-[1,4]oxazino[2,3-b]phenoxazin-8(2H)-ylidene)ethanaminium]
nerve specificity / nerve contrast (N/M vs control group) following systemic administration [1]: high nerve specificity
N/M and N/A ratios vs unstained control animals ([1]; systemic administration): significantly higher N/M and N/A ratios than unstained control animals
Max Abs [2]: 638 nm
Max Em [2]: 659 nm
Max Ex [2]: 640 nm
Extinction coefficient [2]: 57360 M⁻¹ cm⁻¹
Quantum yield [2]: 31.70%
time after administration with strong nerve SBR (swine peripheral nerves; IV 0.34 mg/kg): > 4.5 h
time required for sufficient background tissue clearance (swine peripheral nerves; IV 0.34 mg/kg): ~1.5 h
nerve contrast against key surgical tissue classes (adipose, muscle, vasculature, peritoneal) (swine peripheral nerves; laparoscopic): positive nerve contrast
SBR of buried nerve tissues (swine peripheral nerves; underlying peritoneal tissue and several millimeters of mixed adipose and muscle tissues, semi-quantitative): ~1.5
nerve specificity (N/M contrast vs control group) via direct administration [3]: high nerve specificity
N/M and N/A ratios vs unstained control animals ([3]; direct administration): significantly higher N/M and N/A ratios than unstained control animals

CC/N=c1/cc2oc3cc(NCC)c(F)cc3nc-2cc1F [LGW05-91, (Z)—N-(7-(ethylamino)-2,8-difluoro-3H-phenoxazin-3-ylidene)ethanaminium]
nerve specificity / nerve contrast (N/M vs control group) following systemic administration [1]: negative for nerve contrast
Max Abs [2]: 606 nm
Max Em [2]: 626 nm
Max Ex [2]: 610 nm
Extinction coefficient [2]: 16763 M⁻¹ cm⁻¹
Quantum yield [2]: 33.45%
nerve specificity (N/M contrast vs control group) via direct administration [3]: positive nerve specificity

CC/N=c1/cc2oc3cc(N)c(C)cc3nc-2cc1C [LGW06-10, (Z)—N-(7-amino-2,8-dimethyl-3H-phenoxazin-3-ylidene)ethanaminium]
nerve specificity / nerve contrast (N/M vs control group) following systemic administration [1]: negative for nerve contrast
Max Abs [2]: 602 nm
Max Em [2]: 621 nm
Max Ex [2]: 605 nm
Extinction coefficient [2]: 55807 M⁻¹ cm⁻¹
Quantum yield [2]: 26.54%
nerve specificity (N/M contrast vs control group) via direct administration [3]: positive nerve specificity

CC[N+](CC)=c1ccc2nc3cc(C)c(N)cc3oc-2c1 [LGW06-11, N-(7-amino-8-methyl-3H-phenoxazin-3-ylidene)-N-ethylethanaminium]
nerve specificity / nerve contrast (N/M vs control group) following systemic administration [1]: negative for nerve contrast
Max Abs [2]: 628 nm
Max Em [2]: 650 nm
Max Ex [2]: 625 nm
Extinction coefficient [2]: 31843 M⁻¹ cm⁻¹
Quantum yield [2]: 2.52%
nerve specificity (N/M contrast vs control group) via direct administration [3]: positive nerve specificity

CC/N=c1/cc2oc3cc(N)ccc3nc-2cc1C [LGW06-97, (Z)—N-(7-amino-2-methyl-3H-phenoxazin-3-ylidene)ethanaminium]
nerve specificity / nerve contrast (N/M vs control group) following systemic administration [1]: negative for nerve contrast
Max Abs [2]: 599 nm
Max Em [2]: 617 nm
Max Ex [2]: 600 nm
Extinction coefficient [2]: 38616 M⁻¹ cm⁻¹
Quantum yield [2]: 25.39%
nerve specificity (N/M contrast vs control group) via direct administration [3]: positive nerve specificity

c1c2c(cc3c1N=c1cc4c(cc1O3)=NCC4)NCC2 [LGW07-55, 2,3,7,8-tetrahydro-1H-dipyrrolo[3,2-b:2′,3′-i]phenoxazin-9-ium]
nerve specificity / nerve contrast (N/M vs control group) following systemic administration [1]: negative for nerve contrast
Max Abs [2]: 619 nm
Max Em [2]: 634 nm
Max Ex [2]: 620 nm
Extinction coefficient [2]: 20163 M⁻¹ cm⁻¹
Quantum yield [2]: 28.25%
nerve specificity (N/M contrast vs control group) via direct administration [3]: positive nerve specificity
